Our source for the minimal effective concentration values is ChEMBL document CHEMBL1130687, “Synthesis and morphological reversion activity on srctsNRK cells of pyrimidinylpropanamide antibiotics, sparsomycin, sparoxomycin A1, A2, and their analogues” (1998).

The assay has as its system NRK. As to the kind of experiment: Compound was tested for its morphological reversion activity on srctsNRK cells. The assay is classed as functional. The settings on record: Rattus norvegicus, read-out: MEC.
As for `Cc1nc(O)nc(O)c1/C=C/C(=O)N[C@H](CO)C[S+]([O-])C[S+](C)[O-]` (some centres not stated), the minimal effective concentration is 530 µM. As for `Cc1nc(O)nc(O)c1/C=C/C(=O)N[C@@H](CO)C[S+]([O-])C[S+](C)[O-]` (some centres not stated), the figure is 530 µM; as for `CSC[S+]([O-])C[C@H](CO)NC(=O)/C=C/c1c(C)[nH]c(=O)[nH]c1=O` (some centres not stated), 6.5 µM; as for `CCCCSC[S+]([O-])C[C@H](CO)NC(=O)/C=C/c1c(C)nc(O)nc1O` (some centres not stated), 60 µM. Next, `COCOC[C@@H](C[S+]([O-])CSC)NC(=O)/C=C/c1c(C)nc(O)nc1O` (some centres not stated): 60 µM; `CCC(C)SC[S+]([O-])C[C@H](CO)NC(=O)/C=C/c1c(C)nc(O)nc1O` (some centres not stated): 180 µM.

`CCSC[S+]([O-])C[C@H](CO)NC(=O)/C=C/c1c(C)nc(O)nc1O` (some centres not stated): the minimal effective concentration amounted to 20 µM.
